Results on 3 molecules are retold here after US20240041042A1, “1-(PYRIDYL)-5-AZINYLPYRAZOLE DERIVATIVES, AND THEIR USE FOR CONTROL OF UNDESIRED PLANT GROWTH” (Bayer Aktiengesellschaft, priority 2020, published 2024).

The structures appear in SMILES notation. Where two headings read alike, the source gives them in different places.

Type in all cases: in vivo
For data set [1], the system named is Verconica persica (VERPE). Nature of the data set: Post-emergence herbicidal action against VERPE. An outline of the steps:
(§1)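 Rates were 320 g/ha or below, applied as aqueous WP/EC spray with 0.5% additive (600 l/ha) onto one-leaf-stage plants. About 3 weeks later in the greenhouse, damage was scored visually against untreated plants on a 0–100% scale, where 100% means plants died.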

Data set [2] has as its system Polygonum convolvulus (POLCO). In words: Post-emergence herbicidal action against POLCO. An outline of the steps:
as §1

For data set [3], the system named is Matricaria inodora (MATIN). In words: Post-emergence herbicidal action against MATIN. The procedure, abridged: as §1
In data set [4] the test system is Pharbitis purpurea (PHBPU). Nature of the data set: Post-emergence herbicidal action against PHBPU. The procedure, abridged: as §1
Data set [5] has as its system Echinochloa crus-galli (ECHCG). Nature of the data set: Post-emergence herbicidal action against ECHCG. The procedure, abridged:
as §1

Data set [6] deals with Abutilon theophrasti (ABUTH). In words: Post-emergence herbicidal action against ABUTH. The note with it: visual rating about 3 weeks after treatment vs untreated controls (100% = plants have died, 0% = like control plants). The procedure, abridged:
as §1

For data set [7], the system named is Amaranthus retroflexus (AMARE). Nature of the data set: Post-emergence herbicidal action against AMARE. An outline of the steps:
as §1

Data set [8] has as its system Triticum aestivum (TRZAS). The conditions noted are these: crop plant compatibility, effect vs untreated controls. The procedure, abridged:
(§2)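 Visual rating (% effect vs. untreated plants; 100% = plant death) made about 3 weeks after treatment. Plants had been sprayed at one-leaf stage, 2–3 weeks post-sowing, with aqueous WP/EC preparations containing 0.5% additive, 600 l/ha water volume; a, b, c mark dose levels.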

Data set [9] concerns Viola tricolor (VIOTR). In words: Post-emergence herbicidal action against VIOTR. The procedure, abridged: as §1
Data set [10] deals with Setaria viridis (SETVI). In words: Post-emergence herbicidal action against SETVI. An outline of the steps: as §1
In data set [11] the test system is Amaranthus retroflexus (AMARE). In words: Pre-emergence herbicidal action against AMARE. The note with it: visual scoring after about 3 weeks vs untreated controls. An outline of the steps:
(§3)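 Herbicide applied to soil before seedling emergence, at 600 l/ha spray volume with 0.5% additive and rates up to 320 g/ha. Evaluation: visual percentage effect, about 3 weeks later, greenhouse-grown pots compared with untreated ones.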

Data set [12] concerns Avena fatua (AVEFA). Nature of the data set: Post-emergence herbicidal action against AVEFA. The conditions noted are these: 80 g/ha, visual rating about 3 weeks after treatment. The procedure, abridged:
as §1

The subject of data set [13] is Lolium rigidum (LOLRI). Nature of the data set: Pre-emergence herbicidal action against LOLRI. An outline of the steps:
as §3

For data set [14], the system named is Verconica persica (VERPE). Nature of the data set: Pre-emergence herbicidal action against VERPE. The note with it: dosage 320 g/ha. An outline of the steps: as §3
In data set [15] the test system is Echinochloa crus-galli (ECHCG). In words: Pre-emergence herbicidal action against ECHCG. The procedure, abridged: as §3
In data set [16] the test system is Lolium rigidum (LOLRI). In words: Post-emergence herbicidal action against LOLRI. The conditions noted are these: dosage 80 g/ha. An outline of the steps:
as §1

Data set [17] has as its system Setaria viridis (SETVI). In words: Pre-emergence herbicidal action against SETVI. The conditions noted are these: dosage 320 g/ha. The procedure, abridged:
as §3

In data set [18] the test system is Matricaria inodora (MATIN). In words: Pre-emergence herbicidal action against MATIN. The procedure, abridged:
as §3

In data set [19] the test system is Polygonum convolvulus (POLCO). Nature of the data set: Pre-emergence herbicidal action against POLCO. The note with it: dosage 320 g/ha. The procedure, abridged:
as §3

Data set [20] has as its system Alopecurus myosuroides (ALOMY). In words: Post-emergence herbicidal action against ALOMY. The conditions noted are these: visual rating about 3 weeks after treatment vs untreated controls (100% = plants have died, 0% = like control plants). An outline of the steps:
as §1

For data set [21], the system named is Viola tricolor (VIOTR). In words: Pre-emergence herbicidal action against VIOTR. The note with it: 320 g/ha, Viola tricolor. An outline of the steps: as §3
The test system of data set [22] is Pharbitis purpurea (PHBPU). In words: Pre-emergence herbicidal action against PHBPU. An outline of the steps:
as §3

For data set [23], the system named is Alopecurus myosuroides (ALOMY). In words: Pre-emergence herbicidal action against ALOMY. The note with it: scored visually after about 3 weeks, 100% = plants have died. The procedure, abridged: as §3
For data set [24], the system named is Avena fatua (AVEFA). Nature of the data set: Pre-emergence herbicidal action against AVEFA. The note with it: 320 g/ha, visual scoring after about 3 weeks vs untreated controls. The procedure, abridged:
as §3

The next data set relates to Zea mays (ZEAMX). The note with it: for Post-emergence action against ZEAMX in % (crop plant compatibility): 20 g/ha, effect in comparison to untreated controls; for Post-emergence action against ZEAMX in %: crop plant compatibility, 80 g/ha, effect vs untreated controls. The procedure, abridged: as §2
The test system of the next data set is Oryza sativa (ORYSA). The note with it: crop plant compatibility. The procedure, abridged: as §2
Data set [25] relates to Digitaria sanguinalis (DIGSA). Nature of the data set: Post-emergence herbicidal action against DIGSA. The note with it: 320 g/ha, visual rating about 3 weeks after treatment. The procedure, abridged: as §1
Where [26] appears, read: 320 g/ha, visual rating about 3 weeks after treatment.
Where [27] appears, read: 20 g/ha, effect vs untreated controls.
Setting [28] is: 80 g/ha, effect in comparison to untreated controls.

On to `C=Cc1c(OCC(=O)OCC)nn(-c2ccccn2)c1-c1ccc(F)nc1` [Example I-273], for which the “Post-emergence action against VERPE in %” value stood at 90% in data set [1] (320 g/ha, VERPE) and 80% in data set [1] (dosage 80 g/ha). For the same molecule, the “Post-emergence action against POLCO in %” value in data set [2] (dosage 320 g/ha) was 80%. The “Post-emergence action against MATIN in %” value in data set [3] (dosage 320 g/ha) was 80%. Besides, the results for the “Post-emergence action against PHBPU in %” value in data set [4] (dosage 80 g/ha) and in data set [4] (dosage 320 g/ha) were 80% and 90%, respectively. Moreover, the “Post-emergence action against ECHCG in %” value in data set [5] (dosage 320 g/ha) came to 90%. Also, in data set [6] (320 g/ha), the “Post-emergence action against ABUTH in %” value came out at 80%. Moreover, the “Post-emergence action against AMARE in %” value in data set [7] (setting [26]) turned out to be 80%. In addition, the “Post-emergence action against TRZAS in %” value in [8] (20 g/ha) came out at 0%. Besides, the “Post-emergence action against VIOTR in %” value with Viola tricolor (VIOTR) [9] (80 g/ha) and with Viola tricolor (VIOTR) [9] (320 g/ha) was 90% throughout.
For `COC(=O)CCOC(=O)COc1nn(-c2ccccn2)c(-c2cncc(F)c2)c1Cl` [Example I-75], in the data set with Setaria viridis (SETVI) [10] (dosage 80 g/ha), the “Post-emergence action against SETVI in %” value worked out at 80%. Besides, the “Pre-emergence action against AMARE in %” value in [11] (80 g/ha) was determined as 80%; in data set [11] (320 g/ha) it was 90%. The “Post-emergence action against VERPE in %” value in data set [1] (dosage 80 g/ha) amounted to 80%. In the data set with Avena fatua (AVEFA) [12], the “Post-emergence action against AVEFA in %” value was found to be 80%. Besides, the “Pre-emergence action against LOLRI in %” value in the data set with Lolium rigidum (LOLRI) [13] (dosage 80 g/ha) was 80%; in the data set with Lolium rigidum (LOLRI) [13] (dosage 320 g/ha), 100%. The “Pre-emergence action against VERPE in %” value in [14] came out at 90%. Further, the “Post-emergence action against POLCO in %” value in data set [2] (dosage 80 g/ha) stood at 90%. In addition, the entries for the “Pre-emergence action against ECHCG in %” value in data set [15] (dosage 80 g/ha) and in data set [15] (dosage 320 g/ha) were 80% and 100%, respectively. Also, in data set [3] (dosage 80 g/ha), the “Post-emergence action against MATIN in %” value is listed as 90%. In [4] (dosage 80 g/ha), the “Post-emergence action against PHBPU in %” value came out at 90%. In [5] (dosage 80 g/ha), the “Post-emergence action against ECHCG in %” value was 90%. Further, in data set [6] (80 g/ha), the “Post-emergence action against ABUTH in %” value is 80%. In addition, the “Post-emergence action against LOLRI in %” value in the data set on Lolium rigidum (LOLRI) [16] is on record as 90%. Also, the “Pre-emergence action against SETVI in %” value with Setaria viridis (SETVI) [17] is 100%. For the same molecule, the “Pre-emergence action against MATIN in %” value in data set [18] (dosage 80 g/ha) and in data set [18] (dosage 320 g/ha) was 90% in each case. Besides, the “Pre-emergence action against POLCO in %” value in data set [19] came to 90%. The “Post-emergence action against ALOMY in %” value in data set [20] (80 g/ha) stood at 90%. The “Pre-emergence action against VIOTR in %” value in the data set on Viola tricolor (VIOTR) [21] was determined as 100%. The “Post-emergence action against AMARE in %” value in [7] (80 g/ha, visual rating about 3 weeks after treatment vs untreated controls (100% = plants have died, 0% = like control plants)) stood at 80%. Further, the “Pre-emergence action against PHBPU in %” value in [22] (dosage 80 g/ha) and in [22] (dosage 320 g/ha) was 90% each time. Also, the results for the “Pre-emergence action against ALOMY” value in [23] (80 g/ha) and in [23] (320 g/ha) were 80% and 90%, respectively. Besides, the “Pre-emergence action against AVEFA in %” value with Avena fatua (AVEFA) [24] was determined as 80%. In addition, in data set [8] (20 g/ha), the “Post-emergence action against TRZAS in %” value was 20%. Besides, in the data set with Zea mays (ZEAMX), the “Post-emergence action against ZEAMX in % (crop plant compatibility)” value stood at 10%. For the same molecule, the “Post-emergence action against ZEAMX in %” value in the data set on Zea mays (ZEAMX) is on record as 20%. Further, the “Post-emergence action against ORYSA in %” value in the data set with Oryza sativa (ORYSA) (setting [27]) and in the data set on Oryza sativa (ORYSA) (setting [28]) was 0% throughout.
Consider `COC(=O)COc1nn(-c2cccnc2C)c(-c2cncc(F)c2)c1Cl` [II-44], for which the “Post-emergence action against SETVI in %” value in the data set on Setaria viridis (SETVI) [10] (dosage 320 g/ha) was 90%. For the same molecule, the “Post-emergence action against VERPE in %” value in data set [1] (320 g/ha, VERPE) is 90%; in data set [1] (dosage 80 g/ha), 80%. Besides, in [2] (dosage 320 g/ha), the “Post-emergence action against POLCO in %” value was 90%. The “Post-emergence action against ECHCG in %” value in [5] (dosage 320 g/ha) is given as 90%. Further, the “Post-emergence action against ABUTH in %” value in [6] (320 g/ha) is listed as 80%. Besides, the “Post-emergence action against DIGSA in %” value in data set [25] came to 80%. Moreover, the “Post-emergence action against ALOMY in %” value in data set [20] (320 g/ha) is listed as 100%. Also, the “Post-emergence action against AMARE in %” value in data set [7] (setting [26]) is 90%. The “Post-emergence action against TRZAS in %” value in data set [8] (20 g/ha) and in [8] (80 g/ha) was 20% throughout. Further, in the data set on Zea mays (ZEAMX), the “Post-emergence action against ZEAMX in % (crop plant compatibility)” value is 0%. Moreover, the “Post-emergence action against ZEAMX in %” value with Zea mays (ZEAMX) worked out at 0%. Moreover, the “Post-emergence action against ORYSA in %” value in the data set with Oryza sativa (ORYSA) (setting [27]) and in the data set with Oryza sativa (ORYSA) (setting [28]) was 0% throughout. For the same molecule, the “Post-emergence action against VIOTR in %” value came to 80% in the data set with Viola tricolor (VIOTR) [9] (80 g/ha) and 90% in the data set on Viola tricolor (VIOTR) [9] (320 g/ha).
